# Experimental data taken from ChEMBL document CHEMBL3758093, “Sulfonamide inhibition studies of the β-carbonic anhydrase from the pathogenic bacterium Vibrio cholerae” (Bioorg Med Chem, 2016).
# Biological target: Carbonic anhydrase 1 (Homo sapiens, UniProt P00915)
# Sequence (P00915 whole entry): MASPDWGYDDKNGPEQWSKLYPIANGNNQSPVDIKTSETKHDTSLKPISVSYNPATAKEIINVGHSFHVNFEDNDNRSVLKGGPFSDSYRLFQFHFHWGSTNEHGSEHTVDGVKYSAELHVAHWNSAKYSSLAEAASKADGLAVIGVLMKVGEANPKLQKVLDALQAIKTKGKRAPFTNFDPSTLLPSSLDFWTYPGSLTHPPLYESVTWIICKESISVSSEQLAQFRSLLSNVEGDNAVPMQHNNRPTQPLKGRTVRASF
smiles,measurement,value
NS(=O)(=O)c1cccc(S(N)(=O)=O)c1,Ki,28 µM
